According to patent US8912144B2, “Method for treating stroke via administration of NEP1-40 and inosine” (Children's Medical Center Corporation, priority 2003, dated 2014):

Test system: corticospinal neurons (CSNs/CSMNs)
Assay: Laser-capture microdissection and Illumina microarray gene expression in corticospinal neurons contralateral to stroke
Format: in vivo, rat
Description: In a separate group of animals (n=20), layer V pyramidal cells of the sensorimotor cortex were retrogradely labeled by injecting Alexa-Fluor-488-conjugated cholera toxin B subunit (CTB; 300 U/μl in sterile saline) into the cervical spinal cord. For this, animals were anesthetized with a combination of ketamine and Domitor (medetomidine) and a laminectomy was performed at the cervical level of the spinal cord (C2-C4). CTB was stereotaxically delivered into four sites lateral to the corticospinal tract. Injections (1.3 μl) were spaced 1 mm apart on the rostro-caudal axis, and were made 0.5 mm to the left and right of the midline. After allowing two weeks for transport of the tracer, we performed either sham surgery with no treatment (n=6) or stroke surgery combined with saline (n=3) or inosine (n=4) treatment as described above. Seven days later, animals were decapitated under transient gas anesthesia, brains were removed and rinsed in cold RPMI medium, and a tissue block containing the sensorimotor cortex was dissected and placed in OCT Tissue Tek Medium (Sakura Finetek USA Inc., CA) on dry ice within five minutes of death. Ten μm sections were cut onto precleaned Gold Seal RITE-ON glass slides (Gold Seal Prod-ucts, Portsmouth, N.H.), placed on dry ice, and rapidly stored at −80° C.
Slide-mounted sections were thawed and dehydrated in RNAse-free ethanol gradients and xylene. Retro-gradely labeled, fluorescent cortical pyramidal cells in the undamaged hemisphere were individually captured using the Arcturus VERITAS system. ≧500 cells were collected from each animal and stored in Arcturus extraction buffer at −80° C. Total RNA was extracted from cells using the Micro-to-Midi TotalRNA Purification System (Invitrogen, Carlsbad Calif.) and double-amplified using the TargetAmp 2-Round Aminoallyl-aRNA Amplification kit 1.0 (Epicentre, Madison, Wis.). Amplified RNA was checked for average fragment length using the Agilent RNA 6000 Nano LabChip kit (Agilent Technologies, Santa Clara, Calif.) and then biotinylated and hybridized (1 μg) on Illumina RatRef-12 Expression BeadChip arrays (Illumina, San Diego Calif.), querying the expression of >22,000 RefSeq-curated rat transcripts. Results were obtained from a total of 15 samples representing 6 untreated controls, 4 animals with stroke treated with saline and 5 animals with stroke treated with inosine. Slides were processed and scanned with Illumina BeadStation platform according to the manufacturer protocol.
Raw data was analyzed using Bioconductor packages (www.bioconductor.org, (Gentleman et al., 2004)). Low level quality-control analysis was performed using inter-array Pearson correlation and clustering based on variance. Two arrays (1 saline and 1 inosine-treated) were outliers and were excluded from the analysis. Data was normalized using quantile normalization, and analysis of differential expression was performed using a linear model fitting (LIMMA package, (Smyth, 2005). Differentially expressed genes were classified according to gene ontology using Bioconductor packages and online tools (DAVID, http://david.abcc.ncifcrf.gov/). Pathway analysis was carried out using Ingenuity Pathway Analysis (Ingenuity Systems, www.ingenuity.com).

**Q.** Which results are given for `OC[C@H]1O[C@@H](n2cnc3c(O)ncnc32)[C@H](O)[C@@H]1O` [inosine]?
**A.** Signal Intensity, LOC500629 (ILMN_61521, inosine after stroke): 946; Fold-Induction Stroke, ino vs. cntrl, LOC500137 (ILMN_61607): 0.58; Signal Intensity, LOC500137 (ILMN_61607, inosine after stroke): 454; Fold-Induction Stroke, ino vs. cntrl, Slc6a15 (ILMN_61840): 0.43; Signal Intensity, Slc6a15 (ILMN_61840, inosine after stroke): 1093; Fold-Induction Stroke, ino vs. cntrl, Bpnt1 (ILMN_62095): 0.70; Signal Intensity, Bpnt1 (ILMN_62095, inosine after stroke): 283; Fold-induction CSMNs: Ftl1 (ILMN_62100, over and above inosine's effect of decreasing stroke-induced changes): 1.74 fold; Fold-Induction Stroke, ino vs. cntrl, Ddx1 (ILMN_62325): 0.57; Signal Intensity, Ddx1 (ILMN_62325, inosine after stroke): 3553; Fold-induction CSMNs: Timp1 (ILMN_62559, over and above inosine's effect of decreasing stroke-induced changes): 3.74 fold; Fold-Induction Stroke, ino vs. cntrl, Rab18 (ILMN_62620): 0.76; Signal Intensity, Rab18 (ILMN_62620, inosine after stroke): 2230; Fold-induction CSMNs: Eif4ebp1 (ILMN_62651, over and above inosine's effect of decreasing stroke-induced changes): 1.86 fold; Fold-Induction Stroke, ino vs. cntrl, Grinl1a (ILMN_62918): 0.66; Signal Intensity, Grinl1a (ILMN_62918, inosine after stroke): 667; Fold-Induction Stroke, ino vs. cntrl, Ppp1cb (ILMN_62999): 0.42; Signal Intensity, Ppp1cb (ILMN_62999, inosine after stroke): 940; Fold-Induction Stroke, ino vs. cntrl, LOC302559 (ILMN_63077): 0.89; Signal Intensity, LOC302559 (ILMN_63077, inosine after stroke): 1031; Fold-Induction Stroke, ino vs. cntrl, LOC366673 (ILMN_63297): 0.60; Signal Intensity, LOC366673 (ILMN_63297, inosine after stroke): 298; Fold-Induction Stroke, ino vs. cntrl, Rcn2 (ILMN_63299): 0.60; Signal Intensity, Rcn2 (ILMN_63299, inosine after stroke): 442; Fold-Induction Stroke, ino vs. cntrl, Gtl6 (ILMN_63474): 0.51; Signal Intensity, Gtl6 (ILMN_63474, inosine after stroke): 302; Fold-Induction, complement cascade gene C2 (ILMN_63608, LCM-captured CSMNs contralateral a stroke): 2.93 fold; Fold-Induction Stroke, ino vs. cntrl, Cdc91l1 (ILMN_63884): 0.82; Signal Intensity, Cdc91l1 (ILMN_63884, inosine after stroke): 529; Fold-Induction Stroke, ino vs. cntrl, LOC306428 (ILMN_63947): 0.42; Signal Intensity, LOC306428 (ILMN_63947, inosine after stroke): 507; Fold-Induction Stroke, ino vs. cntrl, LOC500436 (ILMN_64006): 0.48; Signal Intensity, LOC500436 (ILMN_64006, inosine after stroke): 1871; Fold-Induction Stroke, ino vs. cntrl, LOC366411 (ILMN_64007): 0.51; Signal Intensity, LOC366411 (ILMN_64007, inosine after stroke): 295; Fold-Induction Stroke, ino vs. cntrl, Bcl10 (ILMN_64237): 0.84; Signal Intensity, Bcl10 (ILMN_64237, inosine after stroke): 723; Fold-Induction Stroke, ino vs. cntrl, Magi3 (ILMN_64781): 0.79; Signal Intensity, Magi3 (ILMN_64781, inosine after stroke): 472; Fold-Induction Stroke, ino vs. cntrl, Rtn4 (ILMN_64945): 0.57; Signal Intensity, Rtn4 (ILMN_64945, inosine after stroke): 6518; Fold-Induction Stroke, ino vs. cntrl, LOC500501 (ILMN_65062): 0.79; Signal Intensity, LOC500501 (ILMN_65062, inosine after stroke): 958; Fold-Induction Stroke, ino vs. cntrl, LOC287212 (ILMN_65170): 0.60; Signal Intensity, LOC287212 (ILMN_65170, inosine after stroke): 1634; Fold-Induction Stroke, ino vs. cntrl, LOC499328 (ILMN_65309): 0.53; Signal Intensity, LOC499328 (ILMN_65309, inosine after stroke): 899; Fold-Induction Stroke, ino vs. cntrl, Psmb5 (ILMN_65450): 0.65; Signal Intensity, Psmb5 (ILMN_65450, inosine after stroke): 2709; Fold-Induction Stroke, ino vs. cntrl, Hnrpf (ILMN_65510): 0.86; Signal Intensity, Hnrpf (ILMN_65510, inosine after stroke): 1922; Fold-Induction Stroke, ino vs. cntrl, Psma7 (ILMN_65587): 0.62; Signal Intensity, Psma7 (ILMN_65587, inosine after stroke): 2058; Fold-Induction Stroke, ino vs. cntrl, LOC497663 (ILMN_65610): 0.90; Signal Intensity, LOC497663 (ILMN_65610, inosine after stroke): 416; Fold-Induction Stroke, ino vs. cntrl, Pafah1b2 (ILMN_65657): 0.56; Signal Intensity, Pafah1b2 (ILMN_65657, inosine after stroke): 411; Fold-Induction Stroke, ino vs. cntrl, LOC294046 (ILMN_65667): 0.55; Signal Intensity, LOC294046 (ILMN_65667, inosine after stroke): 2096; Fold-Induction Stroke, ino vs. cntrl, Rchy1 (ILMN_65668): 0.77; Signal Intensity, Rchy1 (ILMN_65668, inosine after stroke): 416; Fold-Induction Stroke, ino vs. cntrl, LOC501181 (ILMN_65702): 0.49; Signal Intensity, LOC501181 (ILMN_65702, inosine after stroke): 268; Fold-Induction Stroke, ino vs. cntrl, Mal (ILMN_65814): 0.40; Signal Intensity, Mal (ILMN_65814, inosine after stroke): 465; Fold-Induction Stroke, ino vs. cntrl, MGC93921 (ILMN_65993): 0.69; Signal Intensity, MGC93921 (ILMN_65993, inosine after stroke): 845; Fold-Induction Stroke, ino vs. cntrl, LOC299179 (ILMN_66036): 0.76; Signal Intensity, LOC299179 (ILMN_66036, inosine after stroke): 385; Fold-Induction Stroke, ino vs. cntrl, LOC317232 (ILMN_66272): 0.70; Signal Intensity, LOC317232 (ILMN_66272, inosine after stroke): 5211; Fold-Induction Stroke, ino vs. cntrl, Spnb4 (ILMN_66300): 0.72
